Assay results: patent publication US9969742B2, “Imidazotriazinone compounds” (Ironwood Pharmaceuticals, Inc., priority 2012, dated 2018)
Read-outs that look alike come from different tables or passages of the source.

Columns and labels:
Format in all cases: biochemical
PDE9A2 = target: T1, PDE9A2 (Homo sapiens, UniProt O76083); test: Phosphodiesterase enzyme screening assay, PDE9A2; details: read-out: Band (PDE9A2 IC50)
T1 construct: purchased Reaction Biology Corporation, Malvern, Pa
In short: (§1)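 Read-out was electrophoretic mobility-shift separation on chip of fluorescent cyclic nucleotide from 5′-AMP/5′-GMP, with inhibition or enhancement judged against control wells (quadruplicate means). Reactions lasted 1 h at RT in HEPES pH 7.5 buffer with MgCl2, DTT and Brij plus 4.0 μM cGMP substrate, then were halted with EDTA stop buffer.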

PDE1A = target: T2, PDE1A (Homo sapiens, UniProt P54750); test: Phosphodiesterase enzyme screening assay, PDE1A
T2 construct: purchased Reaction Biology Corporation, Malvern, Pa
In short: as §1

PDE1B = target: T3, PDE1B (Homo sapiens, UniProt Q01064); test: Phosphodiesterase enzyme screening assay, PDE1B
T3 construct: purchased Reaction Biology Corporation, Malvern, Pa
In short: as §1

[1] = Table 1, 10 concentrations, 4.0 μM cGMP substrate, 1 hour at R.T.
[2] = Table 1, ratio of IC50 values, value greater than 1 indicates greater selectivity for PDE9A2
[3] = ratio of IC50 values, PDE1A versus PDE9A2, value greater than 1 indicates greater selectivity for PDE9A2
[4] = ratio of IC50 values, PDE1B versus PDE9A2, value greater than 1 indicates greater selectivity for PDE9A2
[5] = 4.0 μM cGMP substrate, 1 hour at R.T.
[6] = Table 3, 4.0 μM cGMP substrate, 1 hour at R.T.
[7] = ratio of IC50 values, PDE1A versus PDE9A2, value greater than 1 = greater selectivity for PDE9A2
[8] = ratio of IC50 values, PDE1B versus PDE9A2, value greater than 1 = greater selectivity for PDE9A2
[9] = ratio of IC50 values, value greater than 1 indicates greater selectivity for PDE9A2
[10] = Table 2, ratio of IC50 values, value greater than 1 indicates greater selectivity for PDE9A2

T2 sequence (P54750 whole entry): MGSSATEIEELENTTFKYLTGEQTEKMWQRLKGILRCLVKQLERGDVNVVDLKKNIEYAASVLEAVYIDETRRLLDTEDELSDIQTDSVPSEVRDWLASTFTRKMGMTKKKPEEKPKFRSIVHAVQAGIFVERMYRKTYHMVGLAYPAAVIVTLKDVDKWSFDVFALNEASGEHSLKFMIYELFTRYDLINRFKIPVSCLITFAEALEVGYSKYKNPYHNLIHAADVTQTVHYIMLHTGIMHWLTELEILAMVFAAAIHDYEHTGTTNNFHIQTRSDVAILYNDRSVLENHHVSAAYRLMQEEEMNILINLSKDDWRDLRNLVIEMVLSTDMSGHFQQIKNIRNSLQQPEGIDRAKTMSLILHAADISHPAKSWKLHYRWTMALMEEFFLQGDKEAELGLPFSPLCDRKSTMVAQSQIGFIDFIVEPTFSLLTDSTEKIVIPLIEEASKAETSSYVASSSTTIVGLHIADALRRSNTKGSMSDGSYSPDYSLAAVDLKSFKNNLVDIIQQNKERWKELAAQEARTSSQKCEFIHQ
T1 sequence (O76083 1-533 isoform O76083-2): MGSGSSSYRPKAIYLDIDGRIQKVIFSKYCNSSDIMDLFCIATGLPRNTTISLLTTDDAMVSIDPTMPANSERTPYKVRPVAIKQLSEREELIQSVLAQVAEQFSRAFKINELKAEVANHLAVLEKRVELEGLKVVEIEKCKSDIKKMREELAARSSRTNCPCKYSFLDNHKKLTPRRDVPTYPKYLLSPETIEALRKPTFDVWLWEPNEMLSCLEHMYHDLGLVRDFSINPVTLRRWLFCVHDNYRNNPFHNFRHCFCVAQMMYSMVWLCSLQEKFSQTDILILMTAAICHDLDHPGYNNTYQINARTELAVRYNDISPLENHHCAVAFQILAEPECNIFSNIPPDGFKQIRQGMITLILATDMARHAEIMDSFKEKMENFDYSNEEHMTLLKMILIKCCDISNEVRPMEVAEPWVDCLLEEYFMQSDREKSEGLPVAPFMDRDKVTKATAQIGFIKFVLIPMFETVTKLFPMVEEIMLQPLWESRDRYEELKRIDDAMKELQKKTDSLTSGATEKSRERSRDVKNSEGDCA
T3 sequence (Q01064 whole entry): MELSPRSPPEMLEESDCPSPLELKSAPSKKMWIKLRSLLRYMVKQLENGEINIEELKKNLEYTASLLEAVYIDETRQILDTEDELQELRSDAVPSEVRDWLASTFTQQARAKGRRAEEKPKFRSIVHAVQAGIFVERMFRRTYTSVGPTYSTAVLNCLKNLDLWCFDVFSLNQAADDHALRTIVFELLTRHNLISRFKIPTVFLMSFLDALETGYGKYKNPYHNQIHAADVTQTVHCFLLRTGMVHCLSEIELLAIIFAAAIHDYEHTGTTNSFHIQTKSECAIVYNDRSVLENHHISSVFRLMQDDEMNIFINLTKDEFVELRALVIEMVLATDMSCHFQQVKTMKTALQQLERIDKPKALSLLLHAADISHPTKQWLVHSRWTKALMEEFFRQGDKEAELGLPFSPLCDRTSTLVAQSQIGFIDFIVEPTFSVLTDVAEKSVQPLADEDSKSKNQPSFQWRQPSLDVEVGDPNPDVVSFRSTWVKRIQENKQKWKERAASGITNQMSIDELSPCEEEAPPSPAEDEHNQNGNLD

SMILES	IC50 (PDE9A2; [1]) [µM]	PDE1A selectivity (versus PDE9A2) (PDE1A; [2])	PDE1B selectivity (versus PDE9A2) (PDE1B; [2])	other results
CC1CN(Cc2ccnnc2)CC1c1nn2c(C3CCOCC3)ncc2c(=O)[nH]1 (single isomer, unassigned; (+)) [(+)-2-((3,4-trans)-4-methyl-1-(pyridazin-4-ylmethyl)pyrrolidin-3-yl)-7-(tetrahydro-2H-pyran-4-yl)imidazo[5,1-f][1,2,4]triazin-4(3H)-one]	< 1	71	99	
Cc1ccccc1-c1ncc2c(=O)[nH]c(C3CN(Cc4ccccn4)CC3C)nn12 (single isomer, unassigned; (+)) [(+)-2-((3,4-trans)-4-methyl-1-(pyridin-2-ylmethyl)pyrrolidin-3-yl)-7-(o-tolyl)imidazo[5,1-f][1,2,4]triazin-4(3H)-one]				IC50 (PDE9A2): < 1 µM; PDE1A selectivity (versus PDE9A2) (PDE1A; [3]): 73; PDE1B selectivity (versus PDE9A2) (PDE1B; [4]): 148
CC1CN(Cc2ccccn2)CC1c1nn2c(C3CCOCC3)ncc2c(=O)[nH]1 (single isomer, unassigned; (+)) [(+)-2-((3,4-trans)-4-methyl-1-(pyridin-2-ylmethyl)pyrrolidin-3-yl)-7-(tetrahydro-2H-pyran-4-yl)imidazo[5,1-f][1,2,4]triazin-4(3H)-one]	< 1	373	470	
Cc1ccccc1-c1ncc2c(=O)[nH]c(C3CN(Cc4cccnc4)CC3C)nn12 (single isomer, unassigned; (+)) [(+)-2-((3,4-trans)-4-methyl-1-(pyridin-3-ylmethyl)pyrrolidin-3-yl)-7-(o-tolyl)imidazo[5,1-f][1,2,4]triazin-4(3H)-one]				IC50 (PDE9A2): < 1 µM; PDE1A selectivity (versus PDE9A2) (PDE1A; [3]): 103; PDE1B selectivity (versus PDE9A2) (PDE1B; [4]): 183
CC1CN(c2ncccn2)CC1c1nn2c(C3CCOCC3)ncc2c(=O)[nH]1 (single isomer, unassigned; (+)) [(+)-2-((3,4-trans)-4-methyl-1-(pyrimidin-2-yl)pyrrolidin-3-yl)-7-(tetrahydro-2H-pyran-4-yl)imidazo[5,1-f][1,2,4]triazin-4(3H)-one]	< 1	1	1	
Cc1cnccc1-c1ncc2c(=O)[nH]c(C3CN(Cc4ncccn4)CC3C)nn12 (single isomer, unassigned; (+)) [(+)-2-((3,4-trans)-4-methyl-1-(pyrimidin-2-ylmethyl)pyrrolidin-3-yl)-7-(3-methylpyridin-4-yl)imidazo[5,1-f][1,2,4]triazin-4(3H)-one]				IC50 (PDE9A2; [5]): < 1 µM; PDE1A selectivity (versus PDE9A2) (PDE1A; ratio of IC50 values PDE1A / PDE9A2, value greater than 1 indicates greater selectivity for PDE9A2): 85; PDE1B selectivity (versus PDE9A2) (PDE1B; ratio of IC50 values PDE1B / PDE9A2, value greater than 1 indicates greater selectivity for PDE9A2): 63
Cc1ccncc1-c1ncc2c(=O)[nH]c(C3CN(Cc4ncccn4)CC3C)nn12 (single isomer, unassigned; (+)) [(+)-2-((3,4-trans)-4-methyl-1-(pyrimidin-2-ylmethyl)pyrrolidin-3-yl)-7-(4-methylpyridin-3-yl)imidazo[5,1-f][1,2,4]triazin-4(3H)-one]				IC50 (PDE9A2): < 1 µM; PDE1A selectivity (versus PDE9A2) (PDE1A; [3]): 85; PDE1B selectivity (versus PDE9A2) (PDE1B; [4]): 127
CC1CN(Cc2cccc3cccnc23)CC1c1nn2c(C3CCOCC3)ncc2c(=O)[nH]1 (single isomer, unassigned; (+)) [(+)-2-((3,4-trans)-4-methyl-1-(quinolin-8-ylmethyl)pyrrolidin-3-yl)-7-(tetrahydro-2H-pyran-4-yl)imidazo[5,1-f][1,2,4]triazin-4(3H)-one]				IC50 (PDE9A2; [6]): < 1 µM; PDE1A selectivity (versus PDE9A2) (PDE1A; [7]): 647; PDE1B selectivity (versus PDE9A2) (PDE1B; [8]): 673
CC1CN(Cc2nccs2)CC1c1nn2c(C3CCOCC3)ncc2c(=O)[nH]1 (single isomer, unassigned; (+)) [(+)-2-((3,4-trans)-4-methyl-1-(thiazol-2-ylmethyl)pyrrolidin-3-yl)-7-(tetrahydro-2H-pyran-4-yl)imidazo[5,1-f][1,2,4]triazin-4(3H)-one]				IC50 (PDE9A2): < 1 µM; PDE1A selectivity (versus PDE9A2) (PDE1A; [9]): 150; PDE1B selectivity (versus PDE9A2) (PDE1B; [9]): 147
CC1CN(Cc2cccs2)CC1c1nn2c(C3CCOCC3)ncc2c(=O)[nH]1 (single isomer, unassigned; (+)) [(+)-2-((3,4-trans)-4-methyl-1-(thiophen-2-ylmethyl)pyrrolidin-3-yl)-7-(tetrahydro-2H-pyran-4-yl)imidazo[5,1-f][1,2,4]triazin-4(3H)-one]				IC50 (PDE9A2; [5]): < 1 µM; PDE1A selectivity (versus PDE9A2) (PDE1A; ratio of IC50 values PDE1A / PDE9A2, value greater than 1 = greater selectivity for PDE9A2): 91; PDE1B selectivity (versus PDE9A2) (PDE1B; ratio of IC50 values PDE1B / PDE9A2, value greater than 1 = greater selectivity for PDE9A2): 140
CC1CN(Cc2ccsc2)CC1c1nn2c(C3CCOCC3)ncc2c(=O)[nH]1 (single isomer, unassigned; (+)) [(+)-2-((3,4-trans)-4-methyl-1-(thiophen-3-ylmethyl)pyrrolidin-3-yl)-7-(tetrahydro-2H-pyran-4-yl)imidazo[5,1-f][1,2,4]triazin-4(3H)-one]				IC50 (PDE9A2; [6]): < 1 µM; PDE1A selectivity (versus PDE9A2) (PDE1A; [7]): 176; PDE1B selectivity (versus PDE9A2) (PDE1B; [8]): 209
CC1CN(CCc2ccccc2)CC1c1nn2c(C3CCOCC3)ncc2c(=O)[nH]1 (single isomer, unassigned; (+)) [(+)-2-((3,4-trans)-4-methyl-1-phenethylpyrrolidin-3-yl)-7-(tetrahydro-2H-pyran-4-yl)imidazo[5,1-f][1,2,4]triazin-4(3H)-one]	< 1	28	23	
CC1CN(Cc2ccccc2C#N)CC1c1nn2c(C3CCOCC3)ncc2c(=O)[nH]1 (single isomer, unassigned; (+)) [(+)-2-(((3,4-trans)-3-methyl-4-(4-oxo-7-(tetrahydro-2H-pyran-4-yl)-3,4-dihydroimidazo[5,1-f][1,2,4]triazin-2-yl)pyrrolidin-1-yl)methyl)benzonitrile]	< 1	241	220	
CC1CN(Cc2ncc(C#N)cn2)CC1c1nn2c(C3CCOCC3)ncc2c(=O)[nH]1 (single isomer, unassigned; (+)) [(+)-2-(((3,4-trans)-3-methyl-4-(4-oxo-7-(tetrahydro-2H-pyran-4-yl)-3,4-dihydroimidazo[5,1-f][1,2,4]triazin-2-yl)pyrrolidin-1-yl)methyl)pyrimidine-5-carbonitrile]				IC50 (PDE9A2; Table 2, 10 concentrations, 4.0 μM cGMP substrate, 1 hour at R.T.): < 1 µM; PDE1A selectivity (versus PDE9A2) (PDE1A; [10]): 22; PDE1B selectivity (versus PDE9A2) (PDE1B; [10]): 65

Second part, led by results:

IC50 (PDE9A2; [1]) [µM]	PDE1A selectivity (versus PDE9A2) (PDE1A; [2])	PDE1B selectivity (versus PDE9A2) (PDE1B; [2])	SMILES	other results
< 1	84	119	Cc1ccccc1-c1ncc2c(=O)[nH]c(C3CN(Cc4ncccn4)CC3C)nn12 (single isomer, unassigned; (+)) [(+)-2-((3,4-trans)-4-methyl-1-(pyrimidin-2-ylmethyl)pyrrolidin-3-yl)-7-(o-tolyl)imidazo[5,1-f][1,2,4]triazin-4(3H)-one]	
< 1	136	174	CC1CN(Cc2ccncn2)CC1c1nn2c(C3CCOCC3)ncc2c(=O)[nH]1 (single isomer, unassigned; (+)) [(+)-2-((3,4-trans)-4-methyl-1-(pyrimidin-4-ylmethyl)pyrrolidin-3-yl)-7-(tetrahydro-2H-pyran-4-yl)imidazo[5,1-f][1,2,4]triazin-4(3H)-one]	
< 1	890	1067	CC1CN(Cc2ccc3ncncc3c2)CC1c1nn2c(C3CCOCC3)ncc2c(=O)[nH]1 (single isomer, unassigned; (+)) [(+)-2-((3,4-trans)-4-methyl-1-(quinazolin-6-ylmethyl)pyrrolidin-3-yl)-7-(tetrahydro-2H-pyran-4-yl)imidazo[5,1-f][1,2,4]triazin-4(3H)-one]	
< 1	471	987	CC1CN(Cc2ccnc3ccccc23)CC1c1nn2c(C3CCOCC3)ncc2c(=O)[nH]1 (single isomer, unassigned; (+)) [(+)-2-((3,4-trans)-4-methyl-1-(quinolin-4-ylmethyl)pyrrolidin-3-yl)-7-(tetrahydro-2H-pyran-4-yl)imidazo[5,1-f][1,2,4]triazin-4(3H)-one]	
< 1	520	1525	CC1CN(Cc2ccc3ncccc3c2)CC1c1nn2c(C3CCOCC3)ncc2c(=O)[nH]1 (single isomer, unassigned; (+)) [(+)-2-((3,4-trans)-4-methyl-1-(quinolin-6-ylmethyl)pyrrolidin-3-yl)-7-(tetrahydro-2H-pyran-4-yl)imidazo[5,1-f][1,2,4]triazin-4(3H)-one]	
< 1	453	1130	CC1CN(Cc2cnc3ccccc3n2)CC1c1nn2c(C3CCOCC3)ncc2c(=O)[nH]1 (single isomer, unassigned; (+)) [(+)-2-((3,4-trans)-4-methyl-1-(quinoxalin-2-ylmethyl)pyrrolidin-3-yl)-7-(tetrahydro-2H-pyran-4-yl)imidazo[5,1-f][1,2,4]triazin-4(3H)-one]	
